According to ChEMBL document CHEMBL3272341, “Cellular pharmocodynamics of several anthrocycline antibiotics” (J Med Chem, 1976):

Legend:
L1210 [1] = assay: Inhibition of DNA synthesis in mouse L1210 cells assessed as inhibition of [3H]-thymidine incorporation measured per 10^6 cells […] pretreated for 1 hr followed by radiotracer addition measured after 1 hr by scintillation spectrometric analysis relative to control; type: functional
L1210 [2] = assay: Inhibition of DNA synthesis in mouse L1210 cells assessed as inhibition of [3H]-thymidine incorporation measured per 10^6 cells at 5 uM pretreated for 1 hr followed by radiotracer addition measured after 1 hr by scintillation spectrometric analysis relative to control; type: functional
L1210 [3] = assay: Inhibition of RNA synthesis in mouse L1210 cells assessed as inhibition of [14C]-uridine incorporation measured per 10^6 cells at 5 uM pretreated for 1 hr followed by radiotracer addition measured after 1 hr by scintillation spectrometric analysis relative to control; type: functional
L1210 [4] = assay: Inhibition of RNA synthesis in mouse L1210 cells assessed as inhibition of [14C]-uridine incorporation measured per 10^6 cells at 3 uM pretreated for 1 hr followed by radiotracer addition measured after 1 hr by scintillation spectrometric analysis relative to control; type: functional
L1210 [5] = assay: Ratio of inhibition of [14C]-uridine incorporation into RNA in mouse L1210 cells to cellular uptake in mouse L1210 cells
L1210 [6] = assay: Cellular uptake in mouse L1210 cells assessed per 10^6 cells at 3 uM up to 120 mins; type: ADME, cell-based; details: l1210, 2 h
L1210 [7] = assay: Inhibition of RNA synthesis in mouse L1210 cells assessed as inhibition of [14C]-uridine incorporation measured per 10^6 cells […] pretreated for 1 hr followed by radiotracer addition measured after 1 hr by scintillation spectrometric analysis relative to control; type: functional
L1210 [8] = assay: Ratio of inhibition of [3H]-thymidine incorporation into DNA in mouse L1210 cells to cellular uptake in mouse L1210 cells
L1210 [9] = assay: Inhibition of DNA synthesis in mouse L1210 cells assessed as inhibition of [3H]-thymidine incorporation measured per 10^6 cells at 3 uM pretreated for 1 hr followed by radiotracer addition measured after 1 hr by scintillation spectrometric analysis relative to control; type: functional

Row | Structure (SMILES) | inhibition at 1 µM (L1210 [1]) [%] | inhibition at 5 µM (L1210 [2]) [%] | inhibition at 5 µM (L1210 [3]) [%] | inhibition at 3 µM (L1210 [4]) [%] | Ratio (L1210 [5]) | Drug uptake (L1210 [6]) [nmol] | inhibition at 1 µM (L1210 [7]) [%] | Ratio (L1210 [8]) | inhibition at 3 µM (L1210 [9]) [%]
1 | COc1cccc2c1C(=O)c1c(O)c3c(c(O)c1C2=O)C[C@@](O)([C@@H](O)CO)C[C@@H]3O[C@H]1C[C@H](N)[C@H](O)[C@H](C)O1 | 23.7 | 32 | 22.4 | 17.9 | 137 | 0.16 | 10.1 | 200 | 25
2 | COc1cccc2c1C(=O)c1c(O)c3c(c(O)c1C2=O)C[C@@](O)(C(C)O)C[C@@H]3O[C@H]1C[C@H](N)[C@H](O)[C@H](C)O1 (stereo not given in full) | 12.1 | 36.8 | 46.4 | 28.9 | 88 | 0.33 | 11.2 | 94 | 30.8
3 | COc1cccc2c1C(=O)c1c(O)c3c(c(O)c1C2=O)C[C@@](O)(C(C)=O)C[C@@H]3O[C@H]1C[C@H](N)[C@H](O)[C@H](C)O1 [DAUNORUBICIN] | 37 | 83 | 74.8 | 69.8 | 155 | 0.31 | 47.6 | 119 | 68.8
4 | COc1cccc2c1C(=O)c1c(O)c3c(c(O)c1C2=O)C[C@@](O)(C(=O)CO)C[C@@H]3O[C@H]1C[C@H](N)[C@H](O)[C@H](C)O1 [DOXORUBICIN] | 28.9 | 52.2 | 56.9 | 50.8 | 121 | 0.19 | 22.5 | 152 | 34.5
5 | COc1cccc2c1C(=O)C1=C(C2=O)C(O)C2=C(C1O)[C@@H](C[C@@H]1C[C@H](N)[C@@H](O)[C@H](C)O1)C[C@@](O)(/C(C)=N/NC(=O)c1ccccc1)C2 (stereo not given in full) [RUBIDAZONE] | 12.7 | 41 | 58.2 | 36.8 | 60 | 0.2 | 11.6 | 65 | 27.2
